Laboratory results taken from ChEMBL document CHEMBL3352273, “Synthesis and biological evaluation of novel thieno[2,3-d]pyrimidine-based FLT3 inhibitors as anti-leukemic agents” (Eur J Med Chem, 2014).

Key:
[1] = cells; settings: Homo sapiens, THP-1, 48 h
Description: Growth inhibition of human THP1 cells after 48 hrs by XTT assay

[2] = cells; settings: Homo sapiens, HL-60, 48 h
Description: Growth inhibition of human HL60 cells after 48 hrs by XTT assay

[3] = test system: K562; assay: cells; settings: Homo sapiens, K562, 48 h
Description: Growth inhibition of human K562 cells after 48 hrs by XTT assay

[4] = cells; settings: Homo sapiens, MV4-11, 48 h
Description: Growth inhibition of human MV411 cells after 48 hrs by XTT assay

[5] = Retention time of the compound by HPLC method; type: physicochemical
[6] = biological target: T1, Receptor-type tyrosine-protein kinase FLT3 (Homo sapiens, UniProt P36888)
T1 sequence (P36888 whole entry): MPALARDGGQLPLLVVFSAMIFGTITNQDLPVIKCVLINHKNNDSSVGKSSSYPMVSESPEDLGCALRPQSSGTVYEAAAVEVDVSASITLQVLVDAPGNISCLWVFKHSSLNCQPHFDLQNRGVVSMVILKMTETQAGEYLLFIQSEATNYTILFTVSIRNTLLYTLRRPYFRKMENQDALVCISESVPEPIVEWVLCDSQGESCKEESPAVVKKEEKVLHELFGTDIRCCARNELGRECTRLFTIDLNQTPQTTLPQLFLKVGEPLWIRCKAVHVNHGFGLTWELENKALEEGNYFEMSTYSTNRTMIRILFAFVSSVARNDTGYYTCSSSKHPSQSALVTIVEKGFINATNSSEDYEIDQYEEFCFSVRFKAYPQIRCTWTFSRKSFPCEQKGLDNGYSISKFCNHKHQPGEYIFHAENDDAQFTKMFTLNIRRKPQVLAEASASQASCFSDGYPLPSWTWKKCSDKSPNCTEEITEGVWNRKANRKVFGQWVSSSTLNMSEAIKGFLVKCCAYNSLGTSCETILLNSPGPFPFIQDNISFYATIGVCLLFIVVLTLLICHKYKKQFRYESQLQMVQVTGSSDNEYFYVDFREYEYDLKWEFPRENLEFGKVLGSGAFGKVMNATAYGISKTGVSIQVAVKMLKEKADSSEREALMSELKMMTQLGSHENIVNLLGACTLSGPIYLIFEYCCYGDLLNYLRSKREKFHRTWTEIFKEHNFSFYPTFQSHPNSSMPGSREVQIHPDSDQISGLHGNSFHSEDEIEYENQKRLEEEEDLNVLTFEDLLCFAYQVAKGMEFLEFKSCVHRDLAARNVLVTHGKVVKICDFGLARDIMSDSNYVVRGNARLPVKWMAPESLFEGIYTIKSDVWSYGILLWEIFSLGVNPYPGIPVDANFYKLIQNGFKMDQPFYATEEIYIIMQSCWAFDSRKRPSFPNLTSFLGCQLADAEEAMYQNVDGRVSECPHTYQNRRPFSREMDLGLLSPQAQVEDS
Description: Inhibition of human FLT3 using 10 uM ATP

SMILES | GI50 [1] [nM] | GI50 [2] [nM] | GI50 [3] [nM] | GI50 [4] [nM] | Retention_time [5] [min] | IC50 [6] | IC50 ([6]; read-out: IC50) [nM]
NNc1nc(-c2cccs2)nc2scc(-c3cccs3)c12 | > 10000 | > 10000 | > 10000 | > 10000 |  |  | 
CC1=CC(=O)N(Nc2nc(-c3cccs3)nc3sc(-c4ccc(O)cc4)c(C)c23)C1=O | 600 | 221 | 145 | 131 | 4.93 |  | 
Cl.c1csc(-c2nc(N3CCNCC3)c3c(-c4cccs4)csc3n2)c1 | > 10000 | > 10000 | > 10000 | > 10000 | 4.39 |  | 
CC1=CC(=O)N(Nc2nc(Cc3cccs3)nc3scc(-c4cccs4)c23)C1=O | 6260 | 725 | > 10000 | 2010 |  | Not Active | 
CC1=CC(=O)N(Nc2nc(-c3cccs3)nc3scc(-c4cccs4)c23)C1=O | 2670 | 746 | 5550 | 320 | 8.11 |  | 69
CC1=CC(=O)N(Nc2nc(-c3ccc(N(C)C)cc3)nc3scc(-c4ccccc4)c23)C1=O | 1630 | 2190 | 1740 | 755 | 10.86 | Not Active | 
CC1=CC(=O)N(Nc2nc(-c3cccs3)nc3sc(Cc4ccc(O)cc4)c(C)c23)C1=O | 948 | 213 | 880 | 103 |  |  | 
COC(=O)c1sc2nc(-c3cccs3)nc(NN3C(=O)C=C(C)C3=O)c2c1C | 172 | 136 | 30 | 86 | 6.04 |  | 
CC1=CC(=O)N(Nc2nc(-c3ccc(C)s3)nc3scc(-c4cccs4)c23)C1=O | 2800 | 403 | 1920 | 775 | 6.17 |  | 
COC(=O)Cc1sc2nc(-c3cccs3)nc(NN3C(=O)C=C(C)C3=O)c2c1C | 2900 | 656 | 483 | 91 |  |  | 
COc1ccc(-c2nc(NN3C(=O)C=C(C)C3=O)c3c(-c4ccccc4)csc3n2)cc1 | 2200 | 1310 | 703 | 407 | 9.76 | Not Active | 
CC1=CC(=O)N(Nc2nc(-c3ccccc3)nc3scc(-c4cccs4)c23)C1=O | 3730 | 862 | 6300 | 836 | 6.15 |  | 1600
CC1=CC(=O)N(Nc2nc(-c3ccc(N)cc3)nc3scc(-c4ccccc4)c23)C1=O | 4110 | 3710 | 8160 | 2100 | 5.16 |  | 
COc1cc2c(N3CCN(C(=O)Nc4ccc(OC(C)C)cc4)CC3)ncnc2cc1OCCCN1CCCCC1 [TANDUTINIB] | > 10000 | > 10000 | > 10000 | 8760 |  |  | 
CC1=CC(=O)N(Nc2nc(Cc3ccccc3)nc3scc(-c4cccs4)c23)C1=O | 6660 | 1520 | 3520 | 3830 | 7.09 | Not Active | 
CC1=CC(=O)N(Nc2nc(-c3cccs3)nc3sc(-c4ccc([N+](=O)[O-])cc4)c(C)c23)C1=O | 846 | 418 | 1880 | 112 | 9.44 |  | 
COCc1sc2nc(-c3cccs3)nc(NN3C(=O)C=C(C)C3=O)c2c1C | 1780 | 266 | 1260 | 115 | 10.19 |  | 
CC1=CC(=O)N(Nc2nc(-c3cccs3)nc3sc(C(N)=O)c(C)c23)C1=O | 2690 | 7800 | 2780 | 193 | 5.72 |  | 
COc1ccc(-c2sc3nc(-c4cccs4)nc(NN4C(=O)C=C(C)C4=O)c3c2C)cc1 | 902 | 624 | 154 | 135 | 10.06 |  | 
COc1sc2nc(-c3cccs3)nc(NN3C(=O)C=C(C)C3=O)c2c1C | 906 | 240 | 1460 | 100 | 5.61 |  | 
CC1=CC(=O)N(Nc2nc(-c3cccs3)nc3scc(-c4ccccc4)c23)C1=O | 155 | 758 | 74 | 233 | 8.39 |  | 
CC1=CC(=O)N(Nc2nc(-c3cccs3)nc3sc(-c4cccc(O)c4)c(C)c23)C1=O | 107 | 383 | 3 | 123 |  |  | 
CC1=CC(=O)N(Nc2nc(-c3cccs3)nc3sc(CO)c(C)c23)C1=O | 2600 | 712 | 3840 | 92 | 10.19 |  | 
